Measured values published in patent US20040248801A1, “Methods and reagents for regulation of cellular responses in biological systems” (priority 2000, published 2004).

Tests used:
[1] = tested on: E. coli AW405; assay: video microscopy motion analysis of bacteria; type: cell-based, Escherichia coli; details: first 5-15 seconds after addition of attractant
Procedure: FIG. 2A: Results of video microscopy motion analysis experiments. Bacteria (Escherichia coli) were treated with buffer alone, galactose, or compound 1 or 3 (Scheme 1) at the indicated saccharide concentrations. The results represent the average from at least five independent experiments performed in triplicate. Error bars represent the deviation between per-second averages during the ten second interval.
Ligands functionalized with galactose such as monovalent ligand 1 and multivalent ligand 3, also serve as attractants in vivo. […] To observe the effects of synthetic ligands on tumbling frequency, E. coli were treated with galactose or galactose-bearing ligands, and bacterial motion was recorded and analyzed using the method of Sager et al.. The tumbling frequency was assessed by averaging the mean angular velocity of the paths obtained in the first 5-15 seconds after addition of attractant (FIG. 2A). […]
Partially permeabilized bacteria (25 μM EDTA for 3 min. at room temperature, then quench with 50 μM CaCl2) at an OD550 of 0.1 were placed under a cover slip supported by additional cover slips in the method of Sager et al.. […] The bacterial motion at 28° C. was recorded, and the paths were analyzed using the ExpertVision system. Paths derived from the first 5 to 15 seconds following the introduction of attractant were analyzed. […] Data were analyzed using the Q and Students tests.

[2] = tested on: B. subtilis 011085; assay: B. subtilis capillary accumulation assay; type: cell-based, Bacillus subtilis
Text: FIG. 4: Results of B. subtilis capillary accumulation assays using ROMP-derived glucose ligands (compound 5-7, Scheme 1). Buffer alone, glucose, or glucose-bearing compounds 5-7 were used as attractants in the capillary accumulation assay. Results are shown for glucose, compound 5, compound 6, and compound 7. Results are the average of at least four trials performed in duplicate and error bars represent single standard deviations.
To test the generality of the observed valency-dependent differences in chemotactic activities and to investigate the role of membrane permeability in responses to our ligands, chemotactic experiments in B. subtilis were conducted. B. subtilis is a gram-positive bacterium that, like gram-negative E. coli, is able to respond to saccharide chemoattractants. In the case of B. subtilis, the multivalent ligands can directly interact with saccharide-sensing receptors, without having to first traverse the outer membrane. Glucose is a chemoattractant for B. subtilis, but galactose is not. Glucose-carrying ligands (compounds 5-7, Scheme 1) were effective chemoattractants for B. subtilis as shown in capillary accumulation assays. […] Free chemoattractant signal glucose had maximal activity as a chemoattractant at 0.5 mM. In analogy to observations with E. coli, as the valency of the ligand increases, the saccharide residue concentration of maximum chemotaxis decreases. […] The results observed indicate that in evolutionarily divergent bacteria E. coli and B. subtilis, the valency of the attractant influences chemotactic response.
E. coli from an overnight culture were grown in LB to OD550 0.4-0.6, washed twice with E. coli chemotaxis buffer, and then partially permeabilized. Bacteria were resuspended in chemotaxis buffer to an OD550 0.1 and utilized in the capillary accumulation assay at 30° C. for 60 min, as previously described. […] Data was analyzed using the Q and Students tests.

O=C(NCCOC1OC(CO)C(O)C(O)C1O)C1C[C@@H]2C=CC1C2 (some centres unmarked) [Compound 1]
mean angular velocity (tumbling frequency) after addition of attractant [1]: produced similar effects to that of the free chemoattractant | chemoattractant activity for B. subtilis [2]: not chemoattractants
